In patent US10004701B2, “Methods and compositions for treating infection” (UNIVERSITY OF ROCHESTER, priority 2012, dated 2018) one finds fold induction data, which are given here for 7 compounds.

Where a name gives a salt, the structure may show the parent alone. Read-outs that look alike come from different tables or passages of the source.

Common to all, as to assay: AK assay 384-well format, Prestwick library screening
One test deals with E. faecium. It is filed as cell-based, Enterococcus faecium. To be noted: Enterococcus faecium, 3 h, 50 μM final drug concentration.
Another test concerns K. pneumoniae. Type of test: cell-based, Klebsiella pneumoniae. To be noted: Klebsiella pneumoniae, 3 h, 50 μM final drug concentration.
In test [1] the test system is S. aureus strain USA300-0114. Type of test: cell-based, Staphylococcus aureus. To be noted: Staphylococcus aureus, USA300, 3 h, 50 μM final drug concentration.
The test system of another test is E. cloacae. It is filed as cell-based, Enterobacter cloacae. To be noted: Enterobacter cloacae, 3 h, 50 μM final drug concentration.
The subject of the next test is P. aeruginosa. Type of test: cell-based, Pseudomonas aeruginosa. To be noted: Pseudomonas aeruginosa, 3 h, 50 μM final drug concentration.
For the next test, the system named is E. coli. It is filed as cell-based, Escherichia coli. To be noted: Escherichia coli, 3 h, 50 μM final drug concentration.
Test [2] has as its system A. baumannii strain 98-37-09. Type of test: cell-based, Acinetobacter baumannii. To be noted: Acinetobacter baumannii, 983709, 3 h, 50 μM final drug concentration.

For `CCN1C[C@]2(COC)CC[C@H](O)[C@]34C1[C@@](O)([C@@H](OC)[C@H]23)[C@@]1(O)C[C@H](OC)[C@H]2C[C@@H]4[C@@H]1[C@H]2OC` [Delsoline], the fold induction at 50 µM with E. faecium (planktonic, […], read-out: AK-based Prestwick Library Screening Results, E. faecium (fold increase in extracellular AK activity)) amounted to 0.9; in the test on K. pneumoniae (planktonic, […], read-out: AK-based Prestwick Library Screening Results, K. pneumoniae (fold increase in extracellular AK activity)), 0.7; in test [1] (planktonic, […], read-out: AK-based Prestwick Library Screening Results, S. aureus (fold increase in extracellular AK activity)), 0.8; in the test on E. cloacae (planktonic, […], read-out: AK-based Prestwick Library Screening Results, E. cloacae (fold increase in extracellular AK activity)), 1.3; with P. aeruginosa (planktonic, […], read-out: AK-based Prestwick Library Screening Results, P. aeruginosa (fold increase in extracellular AK activity)), 0.8; in the test on E. coli (planktonic, […], read-out: AK-based Prestwick Library Screening Results, E. coli (fold increase in extracellular AK activity)), 0.9. In addition, in test [2] (planktonic, […], read-out: AK-based Prestwick Library Screening Results, A. baumannii (fold increase in extracellular AK activity)), the fold induction at 50 µM worked out at 0.9.
As for `C[n+]1cccc(C(=O)[O-])c1` [Trigonelline], the fold induction at 50 µM in the test on E. faecium (planktonic E. faecium, cutoff for positive-scoring molecules 3-fold increase, read-out: AK-based Prestwick Library Screening Results, E. faecium (increase in extracellular AK activity)) is 0.9; with K. pneumoniae (planktonic K. pneumoniae, cutoff for positive-scoring molecules 3-fold increase, read-out: AK-based Prestwick Library Screening Results, K. pneumoniae (increase in extracellular AK activity)) it was 0.7; in test [1] (planktonic S. aureus, cutoff for positive-scoring molecules 3-fold increase, read-out: AK-based Prestwick Library Screening Results, S. aureus (increase in extracellular AK activity)), 0.8; with E. cloacae (planktonic E. cloacae, cutoff for positive-scoring molecules 3-fold increase, read-out: AK-based Prestwick Library Screening Results, E. cloacae (increase in extracellular AK activity)), 1.2; in the test on P. aeruginosa (planktonic P. aeruginosa, cutoff for positive-scoring molecules 3-fold increase, read-out: AK-based Prestwick Library Screening Results, P. aeruginosa (increase in extracellular AK activity)) it was 0.8; in the test on E. coli (planktonic E. coli, cutoff for positive-scoring molecules 3-fold increase, read-out: AK-based Prestwick Library Screening Results, E. coli (increase in extracellular AK activity)) it was 0.9. Besides, in test [2] (planktonic A. baumannii, cutoff for positive-scoring molecules 3-fold increase, read-out: AK-based Prestwick Library Screening Results, A. baumannii (increase in extracellular AK activity)), the fold induction at 50 µM is 0.9.
In the case of `O=C(O)c1cc(=O)c2c(OCC(O)COc3cccc4oc(C(=O)O)cc(=O)c34)cccc2o1` [Cromolyn disodium salt], the fold induction at 50 µM in the test with E. faecium (planktonic, cutoff for positive-scoring molecules 3-fold increase, read-out: AK-based Prestwick Library Screening Results, E. faecium (fold increase in extracellular AK activity)) was 0.9; in the test on K. pneumoniae (planktonic, cutoff for positive-scoring molecules 3-fold increase, read-out: AK-based Prestwick Library Screening Results, K. pneumoniae (fold increase in extracellular AK activity)) it was 0.7; in test [1] (planktonic, cutoff for positive-scoring molecules 3-fold increase, read-out: AK-based Prestwick Library Screening Results, S. aureus (fold increase in extracellular AK activity)), 0.7; in the test with E. cloacae (planktonic, cutoff for positive-scoring molecules 3-fold increase, read-out: AK-based Prestwick Library Screening Results, E. cloacae (fold increase in extracellular AK activity)), 1; with P. aeruginosa (planktonic, cutoff for positive-scoring molecules 3-fold increase, read-out: AK-based Prestwick Library Screening Results, P. aeruginosa (fold increase in extracellular AK activity)) it was 0.8; in the test on E. coli (planktonic, cutoff for positive-scoring molecules 3-fold increase, read-out: AK-based Prestwick Library Screening Results, E. coli (fold increase in extracellular AK activity)) it was 0.7. Moreover, the fold induction at 50 µM in test [2] (planktonic, cutoff for positive-scoring molecules 3-fold increase, read-out: AK-based Prestwick Library Screening Results, A. baumannii (fold increase in extracellular AK activity)) was 0.9.
Turning to `COc1ccc(CCN2CCC(Nc3nc4ccccc4n3Cc3ccc(F)cc3)CC2)cc1` [Astemizole], the fold induction at 50 µM was found to be 1 with E. faecium (planktonic E. faecium, 384-well, cutoff for positive-scoring molecules 3-fold increase, read-out: AK-based Prestwick Library Screening Results: E. faecium (increase in extracellular AK activity)); 1.1 in the test on K. pneumoniae (planktonic K. pneumoniae, 384-well, cutoff for positive-scoring molecules 3-fold increase, read-out: AK-based Prestwick Library Screening Results: K. pneumoniae (increase in extracellular AK activity)); 2.2 in test [1] (planktonic S. aureus, 384-well, cutoff for positive-scoring molecules 3-fold increase, read-out: AK-based Prestwick Library Screening Results: S. aureus (increase in extracellular AK activity)); 1.6 in the test with E. cloacae (planktonic E. cloacae, 384-well, cutoff for positive-scoring molecules 3-fold increase, read-out: AK-based Prestwick Library Screening Results: E. cloacae (increase in extracellular AK activity)); 1 in the test with P. aeruginosa (planktonic P. aeruginosa, 384-well, cutoff for positive-scoring molecules 3-fold increase, read-out: AK-based Prestwick Library Screening Results: P. aeruginosa (increase in extracellular AK activity)); 1.3 in the test with E. coli (planktonic E. coli, 384-well, cutoff for positive-scoring molecules 3-fold increase, read-out: AK-based Prestwick Library Screening Results: E. coli (increase in extracellular AK activity)). Further, in test [2] (planktonic A. baumannii, 384-well, cutoff for positive-scoring molecules 3-fold increase, read-out: AK-based Prestwick Library Screening Results: A. baumannii (increase in extracellular AK activity)), the fold induction at 50 µM came to 1.6.
On to `CC1(C)NC(=O)N(c2ccc([N+](=O)[O-])c(C(F)(F)F)c2)C1=O` [Nilutamide], for which the fold induction at 50 µM in the test with E. faecium ([…], read-out: AK-based Prestwick Library Screening Results, E. faecium (fold increase in extracellular AK activity)) turned out to be 1; with K. pneumoniae ([…], read-out: AK-based Prestwick Library Screening Results, K. pneumoniae (fold increase in extracellular AK activity)), 1; in test [1] ([…], read-out: AK-based Prestwick Library Screening Results, S. aureus (fold increase in extracellular AK activity)), 1.3; in the test on E. cloacae ([…], read-out: AK-based Prestwick Library Screening Results, E. cloacae (fold increase in extracellular AK activity)), 1.4; in the test with P. aeruginosa ([…], read-out: AK-based Prestwick Library Screening Results, P. aeruginosa (fold increase in extracellular AK activity)), 1.2; with E. coli ([…], read-out: AK-based Prestwick Library Screening Results, E. coli (fold increase in extracellular AK activity)), 1.2. Further, the fold induction at 50 µM in test [2] ([…], read-out: AK-based Prestwick Library Screening Results, A. baumannii (fold increase in extracellular AK activity)) turned out to be 1.2.
Regarding `CC(NCCC(c1ccccc1)c1ccccc1)c1ccccc1` (stereo not shown) [Fendiline hydrochloride], the fold induction at 50 µM came to 1.1 in the test with E. faecium (384-well format, cutoff for positive-scoring molecules 3-fold increase, read-out: AK-based Prestwick Library Screening Results, E. faecium (increase in extracellular AK activity)); 0.8 in the test on K. pneumoniae (384-well format, cutoff for positive-scoring molecules 3-fold increase, read-out: AK-based Prestwick Library Screening Results, K. pneumoniae (increase in extracellular AK activity)); 0.8 in test [1] (384-well format, cutoff for positive-scoring molecules 3-fold increase, read-out: AK-based Prestwick Library Screening Results, S. aureus (increase in extracellular AK activity)); 0.9 in the test with E. cloacae (384-well format, cutoff for positive-scoring molecules 3-fold increase, read-out: AK-based Prestwick Library Screening Results, E. cloacae (increase in extracellular AK activity)); 1.1 with P. aeruginosa (384-well format, cutoff for positive-scoring molecules 3-fold increase, read-out: AK-based Prestwick Library Screening Results, P. aeruginosa (increase in extracellular AK activity)); 1 in the test with E. coli (384-well format, cutoff for positive-scoring molecules 3-fold increase, read-out: AK-based Prestwick Library Screening Results, E. coli (increase in extracellular AK activity)). In test [2] (384-well format, cutoff for positive-scoring molecules 3-fold increase, read-out: AK-based Prestwick Library Screening Results, A. baumannii (increase in extracellular AK activity)), the fold induction at 50 µM turned out to be 1.5.
Turning to `CCC[C@H](N[C@@H](C)C(=O)N1[C@H](C(=O)O)C[C@@H]2CCCC[C@@H]21)C(=O)OCC` [Perindopril], the fold induction at 50 µM was 1 with E. faecium (planktonic E. faecium, positive cutoff 3-fold increase, read-out: AK-based Prestwick library screening result, E. faecium (fold increase in extracellular AK activity)); 1.1 in the test with K. pneumoniae (planktonic K. pneumoniae, positive cutoff 3-fold increase, read-out: AK-based Prestwick library screening result, K. pneumoniae (fold increase in extracellular AK activity)); 1.1 in test [1] (planktonic S. aureus, positive cutoff 3-fold increase, read-out: AK-based Prestwick library screening result, S. aureus (fold increase in extracellular AK activity)); 1.3 in the test on E. cloacae (planktonic E. cloacae, positive cutoff 3-fold increase, read-out: AK-based Prestwick library screening result, E. cloacae (fold increase in extracellular AK activity)); 1.2 with P. aeruginosa (planktonic P. aeruginosa, positive cutoff 3-fold increase, read-out: AK-based Prestwick library screening result, P. aeruginosa (fold increase in extracellular AK activity)); 1.2 in the test with E. coli (planktonic E. coli, positive cutoff 3-fold increase, read-out: AK-based Prestwick library screening result, E. coli (fold increase in extracellular AK activity)). In test [2] (planktonic A. baumannii, positive cutoff 3-fold increase, read-out: AK-based Prestwick library screening result, A. baumannii (fold increase in extracellular AK activity)), the fold induction at 50 µM is 1.4.
